{
  "source": "paper PMC12154426",
  "about": "“TPP-Based Nanovesicles Kill MDR Neuroblastoma Cells and Induce Moderate ROS Increase, While Exerting Low Toxicity Towards Primary Cell Cultures: An In Vitro Study” (International Journal of Molecular Sciences, 2025)",
  "system": "spinal cord astrocytes",
  "experiment": "MTT cytotoxicity assay on spinal cord astrocyte primary cell cultures",
  "type": "cell-based, C57BL/6J mice",
  "conditions": "for IC50: 0.12–11.73 µM",
  "source_text": "Similarly to the assessment of haemolytic toxicity, the evaluation of cytotoxicity towards mammalian cells is another pivotal step to afford in the early stage of drug development, before undertaking other costly and time-consuming in vivo experiments. […] The cytotoxicity of quaternary phosphonium salts (QPSs) depends mainly on their physicochemical characteristics, including the number of carbon atoms of alkyl chains, the presence of aromatic ring(s) on which the P^+ cationic charge can delocalize, the type of counter anions, the possible colloidal properties, and the probable capability to form nano aggregates. The specific types of cells exposed to QPSs can further influence their cytotoxicity. In this regard, the constituents of membranes of cancer cells are different from those of mammalian cells. This makes them more susceptible to the disruptive action of cationic compounds, thus making QPSs’ possible cytotoxicity towards tumour cells higher than towards normal ones. Anyway, a certain cytotoxicity could manifest also in normal cells and quantifying it is mandatory. Based on these considerations, although NB is a neuroendocrine tumour which derives from neural crest cells, we investigated the BPPB toxic effects on primary cell cultures, namely spinal cord astrocytes and cortical neurons. Astrocyte primary cultures have emerged as an important tool for understanding the responses of normal cells under both physiological and pathological conditions. On the other hand, primary neuronal cell cultures are best suited for drug discovery and drug development. Primary cell cultures freshly prepared from animals reproduce physiological conditions astonishingly like the in vivo situation. As for our knowledge, it is the first time that the cytotoxicity of a bola amphiphilic compound is assessed on primary cultures of astrocytes and neurons. More generically, the existent studies on the cytotoxicity of synthetic QPSs, or of a generic exogenous synthetic cationic organic compound or polymer on astrocytes and neurons primary cell cultures, are limited. As examples, upon a rapid survey, we have found a study on the mechanism by which amine-modified cationic polystyrene nanoparticles induced cell death in a human brain astrocytoma cell line, but not in primary astrocytes. A study on the mechanism by which endogenous eosinophil cationic protein/RNase 3 induced cell death in primary astrocytes was found, but exogenous synthetic cationic compounds were not considered. Concerning primary neurons, the cytotoxicity of both a commercial (LA2000) and a newly prepared cationic lipid (Arg (TFA^−)) vs. primary neurons was assessed by Aoshima et al.. The cytotoxicity of a library of 80 compounds, among which only 2/3 molecules were cationic salts, was evaluated in human-induced pluripotent stem cell (iPSC)-derived neural stem cells, neurons, and astrocytes by Pei et al.. Vidal et al. assessed the neurotoxicity of a cationic fourth generation (G4) amine dendrimer (G4-NH2) towards primary neuron cell cultures. […] Cell viability in neurons and astrocytes, treated with increasing concentrations of BPPB for 24, 48, and 72 h, was assessed using the MTT essay, which is a method endowed with simplicity, convenience, quantitative and high throughput, as well as reproducibility. MTT is a well-established method for assessing cell viability, and its reliability is supported by standardized protocols in many areas of research.\nAstrocytes were prepared from the spinal cord of neonatal 2-day-old C57BL/6J mice as previously described, with minor modifications. Briefly, two days after birth, pups (P1-2) were euthanized by cervical dislocation by trained personnel, and spinal cords were rapidly removed. […]",
  "note": "Values joined by “and” are separate entries in the source; they are usually repeats but may differ in a detail not shown here. Identical values can stand only once.",
  "data": [
    {"smiles": "c1ccc([P+](CCCCCCCCCCCC[P+](c2ccccc2)(c2ccccc2)c2ccccc2)(c2ccccc2)c2ccccc2)cc1", "note": "[BPPB, 1,1-(1,12-dodecanediyl)-bis-[1,1,1]-triphenyl phosphonium di-bromide]", "values": [
      {"measurement": "cell viability", "setting": "1.17 µM, 48 h", "value": 72.17, "unit": "%"},
      {"measurement": "cell viability", "setting": "1.17 µM, 72 h", "value": 69.31, "unit": "%"},
      {"measurement": "cell viability", "setting": "2.93 µM, 24 h", "value": 74.95, "unit": "%"},
      {"measurement": "cell viability", "setting": "8.80 µM, 24 h", "value": 47.14, "unit": "%"},
      {"measurement": "cell viability", "setting": "8.80 µM, 72 h", "value": 42.70, "unit": "%"},
      {"measurement": "cell viability", "setting": "11.73 µM, 24 h", "value": 20.22, "unit": "%"},
      {"measurement": "cell viability", "setting": "11.73 µM, 48 h", "value": 45.18, "unit": "%"},
      {"measurement": "IC50", "setting": "24 h exposure", "value": "~7.04 µM and 7.04 µM"},
      {"measurement": "IC50", "setting": "48 h exposure", "value": "11 ± 5.09", "unit": "µM"},
      {"measurement": "IC50", "setting": "72 h exposure", "value": "5.09 ± 1.22", "unit": "µM"},
      {"measurement": "SI values with respect to primary spinal cord astrocytes", "setting": "HTLA 230 and HTLA ER, all exposure timings", "value": "4.25–23.73"},
      {"measurement": "selectivity index values", "setting": "NB cells with respect to neurons and astrocytes, maximum", "value": "up to 23.7"},
      {"measurement": "SI 24 h", "setting": "Spinal cord astrocytes vs. HTLA 230, 24 h", "value": 7.61},
      {"measurement": "SI 48 h", "setting": "Spinal cord astrocytes vs. HTLA 230, 48 h", "value": 23.73},
      {"measurement": "SI 72 h", "setting": "Spinal cord astrocytes vs. HTLA 230, 72 h", "value": 13.09},
      {"measurement": "SI 24 h", "setting": "Spinal cord astrocytes vs. HTLA ER, 24 h", "value": 5.69},
      {"measurement": "SI 48 h", "setting": "Spinal cord astrocytes vs. HTLA ER, 48 h", "value": 8.10},
      {"measurement": "SI 72 h", "setting": "Spinal cord astrocytes vs. HTLA ER, 72 h", "value": 4.25}
    ]}
  ]
}
